In paper PMC3703888, “Integration of Different “-omics” Technologies Identifies Inhibition of the IGF1R-Akt-mTOR Signaling Cascade Involved in the Cytotoxic Effect of Shikonin against Leukemia Cells” (Evidence-based Complementary and Alternative Medicine : eCAM, 2013):

What was measured:
U937 cells = assay: mRNA microarray; format: cell-based, human; conditions: shikonin at IC50 concentration, 24 h vs DMSO
Experimental: Total RNA from U937 cells after 24 h of treatment with shikonin at IC50 concentration or DMSO solvent control was isolated using RNeasy Kit from Qiagen (Hilden, Germany) according to the manufacture's instruction. The quality of total RNA was checked by gel analysis using the total RNA Nano chip assay on an Agilent 2100 Bioanalyzer (Agilent Technologies GmbH, Berlin, Germany). Only samples with RNA index values greater than 9.3 were selected for expression profiling. Microarray experiments were performed in duplicates for treated and untreated samples. Biotin-labeled cRNA samples for hybridization on Illumina Human Sentrix-HT12 Bead Chip arrays (Illumina, Inc.) were prepared according to Illumina's recommended sample labeling procedure based on the modified Eberwine protocol. Biotin-16-UTP was purchased from Roche Applied Science (Penzberg, Germany). The cRNA was column purified with TotalPrep RNA Amplification Kit and eluted in 60 μL of water. Quality of cRNA was controlled using the RNA Nano Chip Assay on an Agilent 2100 Bioanalyzer and spectrophotometrically quantified (NanoDrop). Hybridization was also performed according the manufacturer's recommendations. Microarray scanning was done using a Beadstation array scanner, setting adjusted to a scaling factor of 1 and PMT settings at 430. Data was extracted for each bead individually, and outliers were removed when the MAD (median absolute deviation) was greater than 2.5. Data analysis was performed by using the quantile normalization algorithm without background subtraction, and differentially regulated genes were defined by calculating the standard deviation differences of a given probe in a one-by-one comparison of samples or groups. The expression data obtained was filtered with Chipster data analysis platform. These steps include filtering of genes by two times standard deviation of deregulated genes and a subsequent assessment of significance using empirical Bayes t-test (P < 0.05).

IGF1R = molecular target: T1, IGF1R (Homo sapiens, UniProt P08069); assay: Radiometric protein kinase assay (33PanQinase Activity Assay); format: biochemical; conditions: purified IGF1R kinase, nonlinear regression
T1 construct: purchased ProQinase GmbH (Freiburg, Germany)
T1 sequence (P08069 31-1367): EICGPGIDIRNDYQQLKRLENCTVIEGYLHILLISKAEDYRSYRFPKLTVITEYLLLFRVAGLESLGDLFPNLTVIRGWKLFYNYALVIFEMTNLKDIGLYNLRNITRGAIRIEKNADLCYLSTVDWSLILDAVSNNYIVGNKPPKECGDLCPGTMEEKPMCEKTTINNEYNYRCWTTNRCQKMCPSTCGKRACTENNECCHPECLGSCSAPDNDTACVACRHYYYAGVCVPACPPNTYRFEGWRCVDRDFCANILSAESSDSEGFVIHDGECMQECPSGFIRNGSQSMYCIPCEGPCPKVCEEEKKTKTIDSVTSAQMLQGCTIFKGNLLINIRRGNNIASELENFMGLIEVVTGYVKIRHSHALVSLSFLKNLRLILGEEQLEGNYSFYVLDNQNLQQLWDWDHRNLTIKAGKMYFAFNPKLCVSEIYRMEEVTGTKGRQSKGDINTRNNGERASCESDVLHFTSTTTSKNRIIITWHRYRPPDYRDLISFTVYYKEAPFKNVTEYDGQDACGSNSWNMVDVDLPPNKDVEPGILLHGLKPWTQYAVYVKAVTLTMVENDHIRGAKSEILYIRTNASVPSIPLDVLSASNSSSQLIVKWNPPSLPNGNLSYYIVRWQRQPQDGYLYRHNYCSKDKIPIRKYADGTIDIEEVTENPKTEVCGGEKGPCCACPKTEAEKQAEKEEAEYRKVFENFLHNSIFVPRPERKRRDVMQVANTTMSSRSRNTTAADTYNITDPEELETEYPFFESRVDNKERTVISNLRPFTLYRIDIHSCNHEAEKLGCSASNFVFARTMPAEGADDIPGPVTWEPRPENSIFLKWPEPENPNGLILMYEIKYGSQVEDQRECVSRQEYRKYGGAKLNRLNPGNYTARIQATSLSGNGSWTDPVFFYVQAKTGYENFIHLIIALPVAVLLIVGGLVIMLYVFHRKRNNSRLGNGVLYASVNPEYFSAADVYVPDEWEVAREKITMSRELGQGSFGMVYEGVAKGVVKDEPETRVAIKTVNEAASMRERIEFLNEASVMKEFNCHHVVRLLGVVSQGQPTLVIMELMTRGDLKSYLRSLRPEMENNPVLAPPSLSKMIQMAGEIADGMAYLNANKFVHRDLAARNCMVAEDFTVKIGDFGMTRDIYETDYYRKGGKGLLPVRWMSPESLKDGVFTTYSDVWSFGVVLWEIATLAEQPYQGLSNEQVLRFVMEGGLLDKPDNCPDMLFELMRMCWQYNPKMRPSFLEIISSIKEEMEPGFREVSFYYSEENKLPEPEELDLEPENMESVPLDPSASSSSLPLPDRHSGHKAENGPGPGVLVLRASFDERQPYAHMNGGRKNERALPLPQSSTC
Experimental: The kinase inhibition assay was performed by ProQinase GmbH (Freiburg, Germany). Shikonin was provided as 1.85 × 10^−3 M stock solution in DMSO. In the process, shikonin was serially diluted in semi-log steps with 100% DMSO in a 96-well microtiter plate. Directly before use, shikonin was further diluted 1 : 10 with water. Shikonin was tested at 10 final assay concentrations in the range from 1.85 × 10^−5 M to 5.55 × 10^−10 M. The final DMSO concentration in the reaction cocktails was 1% in all cases. A radiometric protein kinase assay (^33PanQinase Activity Assay) was used for measuring the kinase activity of IGF1R. All kinase assays were performed in 96-well FlashPlates from Perkin Elmer (Boston, MA, USA) in a 50 μL reaction volume. […] Incorporation of ^33Pi (counting of “cpm”) was determined with a Wallac MicroBeta scintillation counter (Perkin Elmer). […] Kinase activity was evaluated based on a comparison with experiments containing the complete reaction cocktail but no shikonin. A complete reaction cocktail without kinase served as control for unspecific binding of radioactivity to the plate in the absence of protein kinase but in the presence of shikonin. IC50 values were calculated by nonlinear regression using Prism 5.04 (Graphpad, CA, USA).

U937 leukemia cells = assay: Resazurin reduction assay (cytotoxicity); format: cell-based; conditions: Homo sapiens, U-937, 24 h treatment, read-out: IC50 (inhibition of U937 proliferation by 50%)
Experimental: Resazurin reduction assay was performed to assess cytotoxicity of shikonin toward U937 cells. The assay is based on reduction of the indicator dye, resazurin, to the highly fluorescent resorufin by viable cells. Nonviable cells rapidly lose the metabolic capacity to reduce resazurin and thus produce no fluorescent signal. Briefly, aliquots of 2 × 10^4 U937 cells per well were seeded in 96-well plates in a total volume of 100 μL. Shikonin was immediately added in varying concentrations in an additional 100 μL of culture medium to obtain a total volume of 200 μL/well. After 24 h, 20 μL resazurin (Sigma-Aldrich, Germany) 0.01% w/v in ddH2O was added to each well and the plates were incubated at 37°C for 4 h. Fluorescence was measured on an Infinite M2000 Pro plate reader (Tecan, Germany) using an excitation wavelength of 544 nm and an emission wavelength of 590 nm. Each assay was done at least two times, with six replicates each. The viability was evaluated based on a comparison with untreated cells. IC50 value represents the shikonin concentrations required to inhibit 50% of cell proliferation and was calculated from a calibration curve by linear regression using Microsoft Excel.

EGFR = test system: EGFR; design: method as in PMID 14568164; conditions: previous studies ref 24; cited from earlier work

In the case of `CC(C)=CC[C@@H](O)C1=CC(=O)c2c(O)ccc(O)c2C1=O` [shikonin], the “FC mRNA ACTB (Actin, cytoplasmic 1)” value (U937 cells) is reported as −6.8, the “FC mRNA ACTG1 (Actin, cytoplasmic 2)” value (U937 cells) is reported as −11.9 and the “FC mRNA ALDOA (Fructose-bisphosphate aldolase A)” value (U937 cells) is reported as −17.6. For the same molecule, the “FC mRNA ANXA1 (Annexin A1)” value (U937 cells) was “+4.1”, the “FC mRNA ARPC1B (Actin-related protein 2/3 complex subunit 1B)” value (U937 cells) was −7.8 and the “FC mRNA CCL2 (C-C motif chemokine 2)” value (U937 cells) was “+4.2”. For the same molecule, the “FC mRNA CCT7 (T-complex protein 1 subunit eta)” value (U937 cells) was −7.8, the “FC mRNA ERP29 (Endoplasmic reticulum resident protein 29)” value (U937 cells) was −6.0 and the “FC mRNA HMOX1 (Heme oxygenase 1)” value (U937 cells) was “+4.1”. The “FC mRNA HSPD1 (60 kDa heat shock protein, mitochondrial)” value (U937 cells) was −6.6, the “FC mRNA JUN (Transcription factor AP-1)” value (U937 cells) was “+3.2” and the “FC mRNA LY96 (Lymphocyte antigen 96)” value (U937 cells) was “+4.5”. The “FC mRNA MAFB (Transcription factor MafB)” value (U937 cells) was “+3.5”, the “FC mRNA MLLT11 (Protein AF1q)” value (U937 cells) was “+6.2” and the “FC mRNA NCF1 (Neutrophil cytosol factor 1)” value (U937 cells) was −5.9. For the same molecule, the “FC mRNA PSMC4 (26S protease regulatory subunit 6B)” value (U937 cells) was −7.7, the “FC mRNA S100A8 (Protein S100-A8)” value (U937 cells) was “+4.7” and the “FC mRNA S100A9 (Protein S100-A9)” value (U937 cells) was “+4.2”. The “FC mRNA SLC39A3 (Zinc transporter ZIP3)” value (U937 cells) was −6.2, the “FC mRNA VIM (Vimentin)” value (U937 cells) was “+4.2” and the IC50 (IGF1R) was 2.6 µM. For the same molecule, the IC50 (U937 leukemia cells) was 0.3 µM and the EGFR phosphorylation (EGFR) was “inhibits EGFR phosphorylation”.
